From publication PMC2820545, “Mechanistic Characterization and Molecular Modeling of Hepatitis B Virus Polymerase Resistance to Entecavir” (PLoS ONE, 2010)
Values joined by “and” are separate entries in the source; they are usually repeats but may differ in a detail not shown here. Equal entries are not always repeated. Where two headings read alike, the source gives them in different places.

Key:
[1] = test system: HBV clones with ETVr signature substitutions in a LVDr background; conditions: cited from earlier work
[2] = target: T1, LVDr + M250V HBV polymerase (Hepatitis B virus genotype D subtype ayw, UniProt P03156, L515M/M539V/M585V); assay: In vitro HBV polymerase assay (endogenous polymerase assay with nucleocapsids); type: biochemical; conditions: for IC50: In vitro polymerase
T1 construct: intracellular HBV nucleocapsids were isolated from HBV transfected HepG2 cells and used in endogenous polymerase assays; expressed in transfected cells; host or cells: HepG2 cells transfected with a mutated HBV expression plasmid
Text: (§1) To provide the data in Tables 1 & 2, intracellular HBV nucleocapsids were isolated from HBV transfected HepG2 cells and used in endogenous polymerase assays (EPA), exactly as previously described in detail. Essentially, clarified, detergent and nuclease-treated HBV-transfected cell lysates were centrifugally sedimented through a 25% wt/vol sucrose cushion. Sedimented nucleocapsids were used in polymerase reactions with [33P]-labeled dNTPs and TCA-precipitable radioactivity was used as an indication of the HBV polymerase activity, as described.
(§2) In order to increase the activity of the EPA reactions, we used nucleocapsids from cells treated with phosphonoformic acid (foscarnet, PFA; Sigma) during culture. […] PFA inhibits synthesis of all HBV DNA forms and both strands of HBV DNA, but not priming, and has a cell culture EC50 of approximately 5 mM for HBV [48].
(§3) The HBV polymerase dNTP Km values were determined from similar assays where the concentration of dNTP was serially diluted from 1000 nM to 0.3 nM. All other dNTPs were used at a fixed concentration equal to the highest test dNTP concentration with one-tenth of the TTP in the form of [α^33P] TTP (3000 Ci/mmol; PerkinElmer, Boston, MA). The apparent Km values were obtained from Lineweaver-Burke plots of the data generated by GraphPad PRISM™ software version 3.0 (San Diego, CA). The Ki values were calculated using the Cheng-Prusoff equation: Ki = IC50/(1+[S]/Km). The enzyme concentration within HBV nucleocapsid preparations was found by determining the level of covalently-linked HBV DNA using quantitative real-time PCR [9] and converting to genome equivalents [1 pg double stranded HBV DNA = 3×10^5 genome equivalents [34]]. The primers were positioned near the 5′ end of minus strand DNA in an attempt to measure all enzymatically active molecules.

[3] = target: T2, LVDr + S202G HBV polymerase (Hepatitis B virus genotype D subtype ayw, UniProt P03156, L515M/M539V/S537G); assay: as above; type: biochemical; conditions: for IC50: In vitro polymerase
T2 construct: intracellular HBV nucleocapsids were isolated from HBV transfected HepG2 cells and used in endogenous polymerase assays; expressed in transfected cells; host or cells: HepG2 cells transfected with a mutated HBV expression plasmid
Text: as §1, §2, §3

[4] = target: T3, LVDr + T184G + S202I HBV polymerase (Hepatitis B virus genotype D subtype ayw, UniProt P03156, L515M/M539V/S537I/T519G); assay: as above; type: biochemical; conditions: for IC50: In vitro polymerase
T3 construct: intracellular HBV nucleocapsids were isolated from HBV transfected HepG2 cells and used in endogenous polymerase assays; expressed in transfected cells; host or cells: HepG2 cells transfected with an HBV expression plasmid
Text: as §1, §2, §3

[5] = target: T4, LVDr L180M + M204V HBV polymerase (Hepatitis B virus genotype D subtype ayw, UniProt P03156, L515M/M539V); assay: as above; type: biochemical; conditions: for IC50: In vitro polymerase, LVDr L180M + M204V
T4 construct: intracellular HBV nucleocapsids were isolated from HBV transfected HepG2 cells and used in endogenous polymerase assays; expressed in transfected cells; host or cells: HepG2 cells transfected with a mutated HBV expression plasmid
Text: as §1, §2, §3

Wildtype HBV polymerase = target: T5, Wildtype HBV polymerase (Hepatitis B virus genotype D subtype ayw, UniProt P03156); assay: as above; type: biochemical
T5 construct: intracellular HBV nucleocapsids were isolated from HBV transfected HepG2 cells and used in endogenous polymerase assays; expressed in transfected cells; host or cells: HepG2 cells transfected with pCMV-HBV
Text: as §1, §2, §3

[6] = target: ETVr HBV polymerases (ETVr signature substitutions in a LVDr background); assay: In vitro HBV polymerase assay, ETVr enzymes as a group; type: biochemical, hepatitis B virus
Text: as §1, §2, §3

[7] = target: T6, LVDr + T184L HBV polymerase (Hepatitis B virus genotype D subtype ayw, UniProt P03156, L515M/M539V/T519L); assay: In vitro HBV polymerase assay (endogenous polymerase assay with nucleocapsids); type: biochemical
T6 construct: intracellular HBV nucleocapsids were isolated from HBV transfected HepG2 cells and used in endogenous polymerase assays; expressed in transfected cells; host or cells: HepG2 cells transfected with a mutated HBV expression plasmid
Text: as §1, §2, §3

Wildtype HBV = assay: HBV cell culture susceptibility (HBV-transfected HepG2 cells); type: cell-based; conditions: Hepatitis B virus, wildtype HBV in culture, read-out: LVD EC50
Protocol: (§4) HepG2 human hepatoma cells (American Type Culture Collection) were maintained as described. The laboratory clone of HBV was the genotype D ayw serotype clone kindly provided by Dr. Steven Goff in the plasmid pCMV-HBV [41]. Plasmids expressing HBV RT with resistance substitutions were prepared using QuikChange® site-directed mutagenesis (Stratagene, LaJolla, CA).
(§5) HepG2 cell culture susceptibility assays were performed in cells transfected with HBV expression plasmids and cultured in the presence of a titration of antiviral compounds, as described in detail elsewhere. The levels of replicated, released HBV virions was measured at day five through immunocapture of detergent released nucleocapsids with anti-HBV core Ab and quantification of encapsidated HBV DNA [5]. Data were plotted as percent inhibition and EC50 values calculated as the drug concentration where 50% inhibition of extracellular HBV occurred.

[8] = test system: singly M250V substituted HBV; assay: as above; type: cell-based, hepatitis B virus
Text: The M250V substituted HBV RT in the absence of LVDr changes was constructed and tested for susceptibility to LVD, an obligate chain terminator which should not be impacted by the mechanism that could potentially affect ETV chain termination.
as §4, §5

HBV = test system: HBV; design: method as in PMID 7601429; conditions: read-out: cell culture EC50; cited from earlier work
[9] = fold change from wildtype value, LVDr + M250V
[10] = fold change from wildtype value, LVDr + S202G
[11] = fold change from wildtype value, LVDr + T184L
[12] = fold change from wildtype value, Wildtype (WT)
[13] = fold change from wildtype value, LVDr + T184G + S202I
[14] = fold change from wildtype value, LVDr M204V+L180M

T5 sequence (P03156 whole entry): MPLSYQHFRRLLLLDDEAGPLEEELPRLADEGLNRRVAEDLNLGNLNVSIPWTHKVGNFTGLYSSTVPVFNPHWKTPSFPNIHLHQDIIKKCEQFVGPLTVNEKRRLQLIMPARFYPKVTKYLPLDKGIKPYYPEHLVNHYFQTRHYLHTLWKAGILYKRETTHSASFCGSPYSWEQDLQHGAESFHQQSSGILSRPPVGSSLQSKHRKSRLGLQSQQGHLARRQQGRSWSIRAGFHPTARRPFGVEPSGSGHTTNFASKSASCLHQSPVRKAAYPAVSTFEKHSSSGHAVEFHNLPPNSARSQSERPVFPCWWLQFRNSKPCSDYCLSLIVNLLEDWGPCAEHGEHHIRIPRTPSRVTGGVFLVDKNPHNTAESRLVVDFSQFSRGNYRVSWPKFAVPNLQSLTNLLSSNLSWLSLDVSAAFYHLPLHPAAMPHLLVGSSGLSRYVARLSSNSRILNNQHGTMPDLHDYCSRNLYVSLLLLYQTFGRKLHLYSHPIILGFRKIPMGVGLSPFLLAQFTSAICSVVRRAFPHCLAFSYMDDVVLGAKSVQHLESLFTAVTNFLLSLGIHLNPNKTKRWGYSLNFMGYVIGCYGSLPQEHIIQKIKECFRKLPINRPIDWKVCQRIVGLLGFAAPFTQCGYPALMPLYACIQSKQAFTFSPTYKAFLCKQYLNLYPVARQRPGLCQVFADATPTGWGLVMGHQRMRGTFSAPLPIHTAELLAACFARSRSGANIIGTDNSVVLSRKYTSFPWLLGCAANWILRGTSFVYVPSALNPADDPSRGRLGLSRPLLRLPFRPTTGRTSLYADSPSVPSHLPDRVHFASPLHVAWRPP
T2 sequence (P03156 whole entry L515M/S537G/M539V): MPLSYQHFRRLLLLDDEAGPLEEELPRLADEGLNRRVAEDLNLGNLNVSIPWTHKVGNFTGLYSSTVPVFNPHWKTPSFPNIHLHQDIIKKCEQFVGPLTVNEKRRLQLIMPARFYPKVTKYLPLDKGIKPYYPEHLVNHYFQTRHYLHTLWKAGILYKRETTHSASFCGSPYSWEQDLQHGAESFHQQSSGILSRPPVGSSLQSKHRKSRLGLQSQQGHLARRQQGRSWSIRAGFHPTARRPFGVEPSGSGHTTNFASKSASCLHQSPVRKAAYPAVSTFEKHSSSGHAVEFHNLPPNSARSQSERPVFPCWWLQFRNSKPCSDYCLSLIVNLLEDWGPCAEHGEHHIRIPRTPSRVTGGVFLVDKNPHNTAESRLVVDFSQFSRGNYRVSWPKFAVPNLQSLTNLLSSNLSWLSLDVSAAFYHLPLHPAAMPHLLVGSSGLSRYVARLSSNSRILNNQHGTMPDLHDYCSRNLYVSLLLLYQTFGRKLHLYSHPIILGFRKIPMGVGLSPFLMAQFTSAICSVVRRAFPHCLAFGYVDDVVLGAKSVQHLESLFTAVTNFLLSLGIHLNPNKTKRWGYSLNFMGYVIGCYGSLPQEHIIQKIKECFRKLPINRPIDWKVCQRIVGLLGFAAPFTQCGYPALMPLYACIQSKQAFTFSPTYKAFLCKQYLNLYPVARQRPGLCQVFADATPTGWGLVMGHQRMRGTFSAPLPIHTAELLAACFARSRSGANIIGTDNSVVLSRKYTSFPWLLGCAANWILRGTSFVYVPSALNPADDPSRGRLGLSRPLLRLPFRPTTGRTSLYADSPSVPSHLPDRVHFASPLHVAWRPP
T4 sequence (P03156 whole entry L515M/M539V): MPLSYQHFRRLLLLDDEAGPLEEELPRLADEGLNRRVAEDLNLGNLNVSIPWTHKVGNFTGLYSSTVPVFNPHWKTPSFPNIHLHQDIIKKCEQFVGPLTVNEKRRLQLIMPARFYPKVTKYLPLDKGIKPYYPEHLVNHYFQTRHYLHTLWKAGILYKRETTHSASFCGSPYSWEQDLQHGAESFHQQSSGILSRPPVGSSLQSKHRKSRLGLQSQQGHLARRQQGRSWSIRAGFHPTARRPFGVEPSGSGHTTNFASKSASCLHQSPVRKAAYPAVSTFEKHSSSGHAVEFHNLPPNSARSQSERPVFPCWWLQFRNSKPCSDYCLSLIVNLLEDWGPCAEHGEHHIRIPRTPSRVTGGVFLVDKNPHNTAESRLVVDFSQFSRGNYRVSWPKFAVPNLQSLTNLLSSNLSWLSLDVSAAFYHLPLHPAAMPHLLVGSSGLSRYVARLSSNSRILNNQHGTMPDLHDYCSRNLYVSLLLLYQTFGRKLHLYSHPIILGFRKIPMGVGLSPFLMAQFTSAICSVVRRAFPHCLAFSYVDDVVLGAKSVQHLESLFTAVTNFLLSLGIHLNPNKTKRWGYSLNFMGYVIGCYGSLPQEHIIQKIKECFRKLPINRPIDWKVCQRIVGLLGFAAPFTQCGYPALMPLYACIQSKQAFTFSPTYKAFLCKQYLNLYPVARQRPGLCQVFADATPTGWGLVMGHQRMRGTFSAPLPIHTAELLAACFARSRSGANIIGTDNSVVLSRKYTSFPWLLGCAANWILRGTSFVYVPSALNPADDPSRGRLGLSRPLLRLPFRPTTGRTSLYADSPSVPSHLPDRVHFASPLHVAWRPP
T1 sequence (P03156 whole entry L515M/M539V/M585V): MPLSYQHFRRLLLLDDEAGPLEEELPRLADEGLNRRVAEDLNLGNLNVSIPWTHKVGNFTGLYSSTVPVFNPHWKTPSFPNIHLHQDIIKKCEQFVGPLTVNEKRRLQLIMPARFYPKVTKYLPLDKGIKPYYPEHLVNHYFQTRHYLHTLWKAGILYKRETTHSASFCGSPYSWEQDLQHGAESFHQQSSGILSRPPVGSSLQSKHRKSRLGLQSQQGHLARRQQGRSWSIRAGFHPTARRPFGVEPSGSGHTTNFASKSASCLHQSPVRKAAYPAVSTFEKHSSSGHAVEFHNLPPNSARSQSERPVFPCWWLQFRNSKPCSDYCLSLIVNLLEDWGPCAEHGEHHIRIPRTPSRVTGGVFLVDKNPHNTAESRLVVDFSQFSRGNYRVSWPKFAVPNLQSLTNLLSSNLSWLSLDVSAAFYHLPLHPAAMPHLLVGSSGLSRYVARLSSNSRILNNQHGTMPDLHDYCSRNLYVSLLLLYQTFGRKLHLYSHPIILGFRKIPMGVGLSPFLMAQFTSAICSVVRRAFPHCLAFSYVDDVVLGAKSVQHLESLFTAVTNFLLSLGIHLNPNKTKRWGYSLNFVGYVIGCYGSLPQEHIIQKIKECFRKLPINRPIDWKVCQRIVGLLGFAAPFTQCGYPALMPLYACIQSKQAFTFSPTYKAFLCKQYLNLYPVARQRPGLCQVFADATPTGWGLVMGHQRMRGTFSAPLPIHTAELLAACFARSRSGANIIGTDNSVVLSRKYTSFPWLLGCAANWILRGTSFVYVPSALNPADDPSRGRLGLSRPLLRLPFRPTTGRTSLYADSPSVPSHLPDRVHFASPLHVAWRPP
T6 sequence (P03156 whole entry L515M/T519L/M539V): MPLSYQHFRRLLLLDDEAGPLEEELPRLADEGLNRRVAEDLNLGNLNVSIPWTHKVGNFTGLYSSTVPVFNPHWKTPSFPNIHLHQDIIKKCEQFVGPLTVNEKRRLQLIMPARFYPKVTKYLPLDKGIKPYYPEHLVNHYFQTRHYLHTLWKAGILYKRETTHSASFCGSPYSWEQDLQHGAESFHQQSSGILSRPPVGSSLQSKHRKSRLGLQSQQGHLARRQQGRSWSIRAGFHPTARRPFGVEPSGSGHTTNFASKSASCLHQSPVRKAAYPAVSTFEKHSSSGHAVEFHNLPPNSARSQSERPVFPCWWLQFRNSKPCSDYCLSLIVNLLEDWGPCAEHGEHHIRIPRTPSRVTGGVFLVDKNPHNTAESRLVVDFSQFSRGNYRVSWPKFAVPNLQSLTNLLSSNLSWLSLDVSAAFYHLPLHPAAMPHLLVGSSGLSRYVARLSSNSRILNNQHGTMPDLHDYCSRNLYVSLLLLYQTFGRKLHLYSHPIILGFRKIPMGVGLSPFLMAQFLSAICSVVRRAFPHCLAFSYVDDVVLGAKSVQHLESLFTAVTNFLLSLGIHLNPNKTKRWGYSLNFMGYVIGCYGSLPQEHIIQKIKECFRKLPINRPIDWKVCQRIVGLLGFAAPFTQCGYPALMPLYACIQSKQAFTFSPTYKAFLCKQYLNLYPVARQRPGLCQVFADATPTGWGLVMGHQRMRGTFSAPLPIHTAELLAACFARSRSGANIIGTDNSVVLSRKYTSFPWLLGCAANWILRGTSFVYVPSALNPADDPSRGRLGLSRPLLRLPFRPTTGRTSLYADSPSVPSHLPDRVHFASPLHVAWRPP
T3 sequence (P03156 whole entry L515M/T519G/S537I/M539V): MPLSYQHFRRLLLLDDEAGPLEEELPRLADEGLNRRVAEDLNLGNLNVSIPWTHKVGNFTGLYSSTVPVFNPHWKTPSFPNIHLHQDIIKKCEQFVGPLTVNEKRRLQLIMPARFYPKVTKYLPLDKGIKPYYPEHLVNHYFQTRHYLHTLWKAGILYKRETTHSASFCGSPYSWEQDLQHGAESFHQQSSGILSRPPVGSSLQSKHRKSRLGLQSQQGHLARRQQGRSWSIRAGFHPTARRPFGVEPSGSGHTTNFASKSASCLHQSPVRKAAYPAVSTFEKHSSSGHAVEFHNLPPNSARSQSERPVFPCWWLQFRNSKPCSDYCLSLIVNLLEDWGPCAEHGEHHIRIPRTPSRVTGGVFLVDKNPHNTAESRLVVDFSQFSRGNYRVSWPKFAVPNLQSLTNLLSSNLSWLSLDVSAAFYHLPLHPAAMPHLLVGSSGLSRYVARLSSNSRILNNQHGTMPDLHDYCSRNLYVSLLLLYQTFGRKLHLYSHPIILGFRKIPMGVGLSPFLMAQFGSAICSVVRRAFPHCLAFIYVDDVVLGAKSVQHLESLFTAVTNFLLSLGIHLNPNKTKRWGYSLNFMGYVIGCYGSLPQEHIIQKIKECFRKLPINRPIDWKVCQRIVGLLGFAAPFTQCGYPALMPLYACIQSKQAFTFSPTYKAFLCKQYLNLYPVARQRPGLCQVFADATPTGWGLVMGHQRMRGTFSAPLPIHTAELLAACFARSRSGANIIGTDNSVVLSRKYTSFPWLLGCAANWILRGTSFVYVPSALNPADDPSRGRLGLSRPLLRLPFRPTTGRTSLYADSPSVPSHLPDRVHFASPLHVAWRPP

## C[C@H](Cn1cnc2c(N)ncnc21)OCP(=O)(O)O [tenofovir]
[1]
  susceptibility of ETVr HBV in cell culture: does not show reduced susceptibility

## Nc1nc2c(ncn2[C@H]2CC[C@@H](COP(=O)(O)OP(=O)(O)OP(=O)(O)O)O2)c(=O)[nH]1 [ddGTP, 2′,3′-dideoxyguanosine-5′-triphosphate]
[2]; LVDr + M250V, read-out: ddGTP IC50, Average ± SD (Range)
  IC50: 0.154 ± 0.0514 µM
[3]; LVDr + S202G, read-out: ddGTP IC50, Average ± SD (Range)
  IC50: 0.125 ± 0.0088 µM
[4]; LVDr + T184G + S202I, read-out: ddGTP IC50, Average ± SD (Range)
  IC50: 0.188 ± 0.0067 µM
[5]; read-out: ddGTP IC50, Average ± SD (Range)
  IC50: 0.138 ± 0.01 µM
Wildtype HBV polymerase
  IC50: 0.0876 µM
[6]; ETVr isolates, in vitro polymerase
  ddGTP IC50 of ETVr isolates relative to background: approximately two-fold above background

## Nc1nc2c(ncn2[C@H]2C[C@H](O)[C@@H](COP(=O)(O)OP(=O)(O)OP(=O)(O)O)O2)c(=O)[nH]1 [dGTP]
[2]; apparent Km, LVDr + M250V polymerase, read-out: dGTP Km
  Km: 2.3 ± 0.5 nM
[2]; [9]
  dGTP Km (Fold WT): 2.2 fold
[3]; apparent Km, LVDr + S202G polymerase, read-out: dGTP Km
  Km: 2.1 ± 0.1 nM
[3]; [10]
  dGTP Km (Fold WT): 2.4 fold
[4]; apparent Km, LVDr + T184G + S202I polymerase, read-out: dGTP Km
  Km: 0.7 ± 0.1 nM
[7]; apparent Km, LVDr + T184L polymerase, read-out: dGTP Km
  Km: 1.9 ± 0.6 nM
[7]; [11]
  dGTP Km (Fold WT): 2.6 fold
[5]; apparent Km, LVDr M204V+L180M polymerase, read-out: dGTP Km
  Km: 3.5 ± 0.4 nM
Wildtype HBV polymerase; apparent Km, Wildtype (WT) polymerase, read-out: dGTP Km
  Km: 5 ± 0.5 nM
Wildtype HBV polymerase; [12]
  dGTP Km (Fold WT): 1 fold
[6]; ETVr enzymes except the quadruple-substituted RT
  change of dGTP Km by ETVr changes: 2.2- to 2.6 fold

## Nc1ncnc2c1ncn2CCOCP(=O)(O)O [adefovir]
[1]
  susceptibility of ETVr HBV in cell culture: does not show reduced susceptibility

## C=C1[C@H](COP(=O)(O)OP(=O)(O)OP(=O)(O)O)[C@@H](O)C[C@@H]1n1cnc2c(=O)[nH]c(N)nc21 [ETV-TP, ETV-triphosphate]
[2]; ETV-TP Ki / dGTP Km ratio, LVDr + M250V
  Ki/Km: 52.7
[2]; LVDr + M250V, read-out: ETV-TP IC50, Average ± SD (Range)
  IC50: 0.229 ± 0.0495 µM
[2]; calculated with Cheng-Prusoff equation, LVDr + M250V polymerase, read-out: Ki (ETV-TP)
  Ki: 0.121 µM
[2]; [9]
  Ki (Fold WT): 303.0 fold
  Ki/Km (Fold WT): 658.8 fold
[3]; ETV-TP Ki / dGTP Km ratio, LVDr + S202G
  Ki/Km: 69.9
[3]; LVDr + S202G, read-out: ETV-TP IC50, Average ± SD (Range)
  IC50: 0.258 ± 0.0255 µM
[3]; calculated with Cheng-Prusoff equation, LVDr + S202G polymerase, read-out: Ki (ETV-TP)
  Ki: 0.147 µM
[3]; [10]
  Ki (Fold WT): 366.8 fold
  Ki/Km (Fold WT): 873.8 fold
[4]; ETV-TP Ki / dGTP Km ratio, LVDr + T184G + S202I
  Ki/Km: 221.6
[4]; LVDr + T184G + S202I, read-out: ETV-TP IC50, Average ± SD (Range)
  IC50: 0.636 ± 0.019 µM
[4]; calculated with Cheng-Prusoff equation, LVDr + T184G + S202I polymerase, read-out: Ki (ETV-TP)
  Ki: 0.155 µM
[4]; [13]
  Ki (Fold WT): 387.8 fold
  Ki/Km (Fold WT): 2770.0 fold
[7]; ETV-TP Ki / dGTP Km ratio, LVDr + T184L
  Ki/Km: 118.2
[7]; In vitro polymerase, LVDr + T184L, read-out: ETV-TP IC50, Average ± SD (Range)
  IC50: 0.373 ± 0.143 µM
[7]; calculated with Cheng-Prusoff equation, LVDr + T184L polymerase, read-out: Ki (ETV-TP)
  Ki: 0.225 µM
[7]; [11]
  Ki (Fold WT): 561.3 fold
  Ki/Km (Fold WT): 1477.5 fold
[5]; ETV-TP Ki / dGTP Km ratio, LVDr M204V+L180M
  Ki/Km: 3.5
[5]; read-out: ETV-TP IC50, Average ± SD (Range)
  IC50: 0.0271 ± 0.0056 µM
[5]; calculated with Cheng-Prusoff equation, LVDr M204V+L180M polymerase, read-out: Ki (ETV-TP)
  Ki: 0.0123 µM
[5]; [14]
  Ki (Fold WT): 30 fold and 30.8 fold
  Ki/Km (Fold WT): 43.8 fold
Wildtype HBV polymerase; In vitro polymerase, Wildtype, read-out: ETV-TP IC50, Average ± SD (Range)
  IC50: 0.0005 ± 0.0001 µM
Wildtype HBV polymerase; calculated with Cheng-Prusoff equation, Wildtype (WT) polymerase, read-out: Ki (ETV-TP)
  Ki: 0.0004 µM
Wildtype HBV polymerase; [12]
  Ki (Fold WT): 1 fold
  Ki/Km (Fold WT): 1 fold
[6]; ETVr enzymes
  Ki/dGTP Km ratio, change from the wildtype: more than 600 fold
[6]; ETVr signature substitutions in a LVDr background, in vitro polymerase
  level of ETVr in vitro: > 400 fold

## Nc1ccn([C@@H]2CS[C@H](CO)O2)c(=O)n1 [LVD, lamivudine]
Wildtype HBV
  EC50: 0.794 µM
[8]; Hepatitis B virus, HepG2, M250V HBV (no LVDr changes) in culture, read-out: LVD EC50
  EC50: 0.116 µM
[8]; {}
  hypersensitivity to LVD in culture: 7 fold

## O=C(O)P(=O)(O)O [PFA, phosphonoformic acid]
HBV
  EC50: ~5000 µM
